SMILES strings stand for the structures. Values after ≈ are worked out from the molar mass of the structure shown. Like-named read-outs stand apart in the source and are kept apart here.

The source of these data is US9034873B2, “Pyridazine and pyrrole compounds, processes for obtaining them and uses” (Centre National de la Recherche Scientifique (C.N.R.S.), priority 2006, dated 2015).

The test system of series [1] is Caco (colon). In words: IC50 of the referent molecules on Caco (colon) cells. The class given is cell-based.
The subject of series [2] is Fibroblast (skin). In words: IC50 of the referent molecules on Fibroblast (skin) cells. The series is classed as cell-based.
Series [3] relates to Sub7 (liver). In words: IC50 of the referent molecules on Sub7 (liver) cells. The series is classed as cell-based.
Series [4] concerns Candida albicans. In words: Parasitology: activity against Candida albicans. The class given is cell-based.
Series [5] has as its system Leishmania mexicana. In words: Parasitology: activity against Leishmania mexicana. The class given is cell-based.
Series [6] relates to Leishmania mexicana promastigotes. In words: Activity against Leishmania mexicana, promastigotes. The following applies: for IC50: Leishmania mexicana, read-out: Activity against Leishmania mexicana (IC50 μg/ml) promastigotes, promastigote stage. The series is classed as cell-based.
The subject of series [7] is Leishmania mexicana amastigotes. Kind of series: Activity against Leishmania mexicana, amastigotes. The series is classed as cell-based. To be noted: amastigote stage; for IC50: Leishmania mexicana, read-out: Activity against Leishmania mexicana (IC50 μg/ml) amastigotes.
Series [8] has as its system KB, Caco, Huh7 and fibroblast cells. Kind of series: Cancer cell model: in vitro test on KB, Caco, Huh7 and fibroblast cells. The class given is cell-based.
The nature of series [9]: Cytotoxicity on KB cells. The class given is cell-based. The following applies: human.
The subject of series [10] is Aspergillus fumigatus. Kind of series: Parasitology: activity against Aspergillus fumigatus. The class given is cell-based. The following applies: for IC80: IC80 stated in the cell.
The target of series [11] is tonB protein (Escherichia coli, UniProt P02929). In words: Effect on tonB protein (iron transport used for bacterial growth). To be noted: tonB protein involved in the iron transport process used for bacterial growth.
Where [12] appears, read: 24 h, read-out: IC50 μM Caco (colon) 24 h.
[13] abbreviates: 48 h, read-out: IC50 μM Caco (colon) 48 h.
Setting [14] is: Fibroblast, 24 h, read-out: IC50 μM Fibroblast (skin) 24 h.
Setting [15] is: Fibroblast, 48 h, read-out: IC50 μM Fibroblast (skin) 48 H.
Where [16] appears, read: 24 h, read-out: IC50 μM Sub7 (liver) 24 h.
Where [17] appears, read: 48 h, read-out: IC50 μM Sub7 (liver) 48 h.
[18] abbreviates: read-out: Parasitology IC50 or 80 Candida albicans μM.
The mark [19] stands for this setting: read-out: Parasitology IC50 or 80 Candida albicans μg/mL.
Setting [20] is: read-out: Parasitology IC50 or 80 Leishmania mexicana μM.
Setting [21] is: read-out: Parasitology IC50 or 80 Leishmania mexicana μg/mL.
Where [22] appears, read: KB cells, read-out: KB cells Cytotoxicity IC50 μM.

Chain of tonB protein (P02929 whole entry): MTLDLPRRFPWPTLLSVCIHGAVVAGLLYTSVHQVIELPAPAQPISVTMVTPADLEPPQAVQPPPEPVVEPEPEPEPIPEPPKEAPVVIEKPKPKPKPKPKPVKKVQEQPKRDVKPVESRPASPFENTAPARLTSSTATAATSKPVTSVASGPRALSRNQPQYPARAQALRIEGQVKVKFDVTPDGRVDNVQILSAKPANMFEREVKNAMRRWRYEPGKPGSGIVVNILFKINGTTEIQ

On to `CC(=O)O[C@H]1C(=O)[C@@]2(C)[C@H]([C@H](OC(=O)c3ccccc3)[C@]3(O)C[C@H](OC(=O)[C@H](O)[C@@H](NC(=O)c4ccccc4)c4ccccc4)C(C)=C1C3(C)C)[C@]1(OC(C)=O)CO[C@@H]1C[C@@H]2O` [Taxol], for which the IC50 in series [1] (setting [12]) was 0.01 µM; in series [1] (setting [13]), under 0.008 µM; in series [2] (setting [14]), over 25 µM; in series [2] (setting [15]), over 25 µM; in series [3] (setting [16]) it was 0.01 µM; in [3] (setting [17]), under 0.01 µM.
As to `c1ccc(-c2ccc(-c3ccc4ccc5ccc(-c6ccc(-c7ccccn7)nn6)nc5c4n3)nn2)nc1` [Compound 66, 2,9-bis[6-(pyridin-2-yl)pyridazin-3-yl][1,10]phenanthroline], the IC50 in series [4] (setting [18]) is over 100 µM; in series [4] (setting [19]), at least 49.1 µg/mL; in series [5] (setting [20]), 16 µM; in [5] (setting [21]) it was 7.84 µg/mL.
Take `CCCCCCCCCCCCCCCCOP(=O)([O-])OCC[N+](C)(C)C` [Miltefosine]: the IC50 is over 2 µg/mL in [6] and 1.42 ± 0.14 µg/mL (≈ 3.48 µM) in series [7]. The “Activity against Leishmania mexicana (IC50 μg/ml) promastigotes” value in [6] (promastigote stage) was over 2 µg/mL.
As to `COc1cccc2c1C(=O)c1c(O)c3c(c(O)c1C2=O)C[C@@](O)(C(=O)CO)C[C@@H]3O[C@H]1C[C@H](N)[C@H](O)[C@H](C)O1` [Doxorubicine], the IC50 was found to be 1 µM in series [1] (setting [12]); 0.06 µM in series [1] (setting [13]); 2 µM in series [2] (setting [14]); 1 µM in [2] (setting [15]); 0.4 µM in series [3] (setting [16]); 0.04 µM in [3] (setting [17]).
For the compound `CC[C@H](CO)Nc1nc(NCc2ccccc2)c2ncn(C(C)C)c2n1` [Roscovitine], the IC50 in [2] (setting [14]) and in [2] (setting [15]) was over 25 µM throughout.
Turning to `CC(=O)N1CCN(c2ccc(OCC3COC(Cn4ccnc4)(c4ccc(Cl)cc4Cl)O3)cc2)CC1` (stereo not shown) [Ketoconazole], the figures for the IC50 in [6] and in series [7] were about 0.3 µg/mL (≈ 0.565 µM) and 1.3 ± 0.2 µg/mL (≈ 2.45 µM), respectively.
Take `c1ccc(-c2ccc(Sc3ccc(-c4ccccn4)nn3)nn2)nc1` [Compound 11, di(6-pyridin-2-yl)pyridazine thioether]: the IC50 in series [4] (setting [18]) stood at 99 µM; in series [4] (setting [19]), 24.2 µg/mL; in series [5] (setting [20]), 3 µM; in [5] (setting [21]), 8.73 µg/mL. The “cytotoxic activity in a cancer cell model” value (“cytotoxic activity” below) in series [8] was “very high cytotoxic activity”.
Turning to `Cc1cccc(-c2ccc(-c3cccc(-c4ccc(-c5cccc(C)n5)nn4)n3)nn2)n1` [Compound 49, 2,6-bis[6-(6-methylpyridin-2-yl)pyridazin-3-yl)pyridine], the “cytotoxic activity” value in series [8] is “very high cytotoxic activity”.
Take `O=c1ccc(-c2cccc(-c3ccc(=O)[nH]n3)n2)n[nH]1` [Compound 36, 2,6-bis(3-oxo-2H-pyridazin-6-yl)pyridine]: the IC50 is over 100 µM in series [4] (setting [18]); over 26.7 µg/mL in [4] (setting [19]); 41 µM in series [5] (setting [20]); 11 µg/mL in [5] (setting [21]); 2.6 µM in series [9] (setting [22]).
Consider `c1ccc(-c2ccc(Oc3ccc(-c4ccccn4)nn3)nn2)nc1` [Compound 9, di(6-pyridin-2-yl)pyridazine ether], for which the IC50 is over 100 µM in [10] (cell does not say IC50 or IC80, read-out: Parasitology IC50 or 80 Aspergillus fumigatus μM); over 22.8 µg/mL in [10] (cell does not say IC50 or IC80, read-out: Parasitology IC50 or 80 Aspergillus fumigatus μg/mL); over 100 µM in series [4] (setting [18]); over 22.8 µg/mL in series [4] (setting [19]); over 100 µM in [5] (setting [20]); over 22.8 µg/mL in series [5] (setting [21]).
Regarding `C[C@@H]1[C@H](O)[C@@H](C)/C=C/C=C/C=C/C=C/C=C/C=C/C=C/[C@H](O[C@@H]2O[C@H](C)[C@@H](O)[C@H](N)[C@@H]2O)C[C@@H]2O[C@](O)(C[C@@H](O)C[C@@H](O)[C@H](O)CC[C@@H](O)C[C@@H](O)CC(=O)O[C@H]1C)C[C@H](O)[C@H]2C(=O)O` [Amphotericin B], the “Activity against Leishmania mexicana (IC50 μg/ml) amastigotes” value in series [7] is 0.47 ± 0.05 µg/mL.
Take `S=c1ccc(-c2ccccn2)n[nH]1` [Compound 10, 6-(pyridin-2-yl)-2H-pyridazine-3-thione]: in series [8], the “cytotoxic activity” value was “very high cytotoxic activity”.
As for `O=c1[nH]cc(F)c(=O)[nH]1` [Compound 5FU, 5FU], the IC50 in [1] (setting [12]) is 0.5 µM; in series [1] (setting [13]), 0.5 µM; in [2] (48 H, read-out: IC50 μM Fibroblast (skin) 48 H) it was over 25 µM; in series [2] (24 h, read-out: IC50 μM Fibroblast (skin) 24 h), over 25 µM; in series [3] (setting [16]) it was over 25 µM; in series [3] (setting [17]) it was over 25 µM.
As for `O=C(O)c1cccc(-c2ccc(-c3cccc(-c4ccc(-c5cccc(C(=O)O)n5)nn4)n3)nn2)n1` [Compound 50, 2,6-bis[3-(2-carboxypyridin-6-yl)pyridazin-6-yl]pyridine], the IC50 turned out to be 63 µM in [4] (setting [18]), 30.1 µg/mL in [4] (setting [19]), 8 µM in [5] (setting [20]) and 3.8 µg/mL in series [5] (setting [21]). Moreover, in series [8], the “cytotoxic activity” value is “very high cytotoxic activity”.
`c1ccc(-c2ccc(-c3cccc(-c4ccc(-c5ccccn5)nn4)n3)nn2)nc1` [Compound 33, 2,6-bis[6-(pyridin-2-yl)pyridazin-3-yl]-pyridine]: the IC80 came to 32 µM in series [10] (read-out: Aspergillus fumigatus IC80 μM) and 9.26 µg/mL in [10] (read-out: Aspergillus fumigatus IC80 μg/mL). In addition, the IC50 in series [4] (setting [18]) came out at 6.4 µM; in [4] (setting [19]), 1.85 µg/mL; in series [5] (setting [20]), 0.19 µM; in series [5] (setting [21]) it was 0.05 µg/mL; in series [9] (setting [22]) it was 6.27 µM; in series [9] (KB cells, read-out: KB cells Cytotoxicity IC50 μg/mL), 1.81 µg/mL.
For `C=C(OCC)c1ccc(-c2ccc(C(=C)OCC)nn2)nn1` [Compound 24, 6,6′-di(1-ethoxyvinyl)-3,3′-bipyridazine], the “cytotoxic activity” value in series [8] is on record as “very high cytotoxic activity”. For the same compound, in [9] (KB cancer cells, text of Example 2, read-out: cytotoxic potential on KB cancer cells, IC50), the IC50 turned out to be 0.3 µg/mL. Besides, the “effect on the tonB protein” value in [11] is on record as “affects the tonB protein”.
